Assays:
[1] = system: Methylobacter chroococcum (CRL M6) NRRL B-11,214; assay: Oxidation by washed cell suspensions of methane-grown cells; format: cell-based; conditions: methane-grown cells; isopropanol to acetone, 2-butanol to 2-butanone
Procedure, shortened: (§1)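 Washed resting cells from methane-grown cultures oxidise the test substrate, supplied as a 1:1 mix with O2 or as 10 μl liquid, at 30 °C in pH 7.0 phosphate buffer; product formation is followed by GC.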

[2] = system: Methylobacterium organophilum (CRL 26 R6) NRRL B-11,222; assay: as above; format: cell-based; conditions: methane-grown cells; isopropanol to acetone, 2-butanol to 2-butanone
Procedure, shortened: as §1

[3] = system: Methylococcus capsulatus (CRL M1) NRRL B-11,219; assay: as above; format: cell-based; conditions: methane-grown cells; isopropanol to acetone, 2-butanol to 2-butanone
Procedure, shortened: as §1

[4] = system: Methylomonas rubrum (CRL M6P) NRRL B-11,210; assay: as above; format: cell-based; conditions: methane-grown cells; isopropanol to acetone
Procedure, shortened: as §1

[5] = system: Methylosinus trichosporium (CRL 15 PM1) NRRL B-11,202; assay: as above; format: cell-based; conditions: methane-grown cells; isopropanol to acetone, 2-butanol to 2-butanone
Procedure, shortened: as §1

[6] = system: Methylobacter bovis (CRL M1Y) NRRL B-11,216; assay: as above; format: cell-based; conditions: methane-grown cells; isopropanol to acetone, 2-butanol to 2-butanone
Experimental: The pH of the nutrient medium was adjusted to 7.0 by the addition of acid or base and 50 ml samples of the nutrient medium were charged into a plurality of 300 ml shaker flasks. The shaker flasks were inoculated with an inoculating loop of cells from an agar plate containing homogeneous colonies of the microorganisms on the plate (the purity of the isolates was confirmed by microscopic examination. The isolates had been maintained on agar plates under an atmosphere of methane and air having a 1:1 v/v gas ratio which had been transferred evey two weeks. The gaseous phase of the inoculated flasks was then replaced with a gas mixture comprised of methane and air having a ratio of 1:1 on a v/v basis. […]
The cells were harvested by centrifugation at 10,000×g. at 4° C. for 30 minutes. The cell pellet was washed twice with a 0.15 M phosphate buffer at a pH of 7.0 (containing 0.002 M MgCl2). The washed cells were then suspended in a 0.15 M phosphate buffer at pH 7.0.
A 0.5 ml sample of each washed cell suspension (2 mg cells) was put into 10 ml vials at 4° C. which were sealed with a rubber cap. The gaseous phase of the vials was removed with vacuum and then was replaced with a gas mixture of the oxidative substrate (e.g., methane) and oxygen at a 1:1 v/v ratio. The vials were then incubated at 30 ° C. on a rotary shaker at 300 rpm. Samples of product (3 μl) were withdrawn periodically with a microsyringe and the products were analyzed by gas chromatography (ionization flame detector column).
The newly discovered and isolated microorganism strains of the present invention were each grown aerobically in the presence of methane in the manner described above. The methane-grown microbial cells were then washed, recovered and put to use in oxidizing an oxidative substrate by the procedure described above except in the case of a liquid substrate 10 μl of the substrate were used.

[7] = system: Methylobacter bovis CRL 19 NRRL B-11,217; assay: Sec. alcohol oxidation by cell suspensions of methanol-grown cells; format: cell-based; conditions: sec. alcohol to methyl ketone
Text: (§2) In this example, the procedure of Example 1 was repeated except that a plurality of the methane-utilizing methylotrophic microorganisms of the invention were each aerobically grown in a methanol-containing nutrient medium instead of a methane-containing medium. The nutrients in the medium were the same as indicated in Example 1 except that 0.4% v/v methanol was used as the alcohol dehydrogenase enzyme inducer and major source of carbon and energy for growth. Following growth the cells were harvested and washed as described in Example 1. The resting cells of the induced methanol-grown methylotrophic microorganisms were then contacted with a […] under aerobic conditions in a buffered solution by the procedure described in Example 1.

[8] = system: Methylobacter chroococcum CRL M6 NRRL B-11,214; assay: as above; format: cell-based; conditions: sec. alcohol to methyl ketone
Text: as §2

[9] = system: Methylobacter vinelandii CRL M5Y NRRL B-11,218; assay: as above; format: cell-based; conditions: sec. alcohol to methyl ketone
Text: as §2

[10] = system: Methylobacterium organophilum CRL 26 NRRL B-11,222; assay: as above; format: cell-based; conditions: sec. alcohol to methyl ketone
Text: as §2

[11] = system: Methylococcus capsulatus CRL 25 NRRL B-11,221; assay: as above; format: cell-based; conditions: sec. alcohol to methyl ketone
Text: as §2

[12] = system: Methylococcus capsulatus CRL M1 NRRL B-11,219; assay: as above; format: cell-based; conditions: sec. alcohol to methyl ketone
Text: as §2

[13] = system: Methylocystis parvus CRL 18 NRRL B-11,204; assay: as above; format: cell-based; conditions: sec. alcohol to methyl ketone
Text: as §2

[14] = system: Methylomonas methanica CRL M4P NRRL B-11,205; assay: as above; format: cell-based; conditions: sec. alcohol to methyl ketone
Text: as §2

[15] = system: Methylomonas streptobacterium CRL 17 PM3 NRRL B-11,208; assay: as above; format: cell-based; conditions: sec. alcohol to methyl ketone
Text: as §2

[16] = system: Methylosinus trichosporium CRL 15 NRRL B-11,202; assay: as above; format: cell-based; conditions: sec. alcohol to methyl ketone
Text: as §2

[17] = system: purified secondary alcohol dehydrogenase (SADH) from Pseudomonas sp. ATCC 21439; assay: Kinetics and substrate specificity of purified SADH; format: biochemical; conditions: 2-butanol = 100%
[18] = system: Candida utilis ATCC 26387; assay: Oxidation of sec-alcohols to ketones by cell suspensions of yeasts; format: cell-based; conditions: sec-alcohol to methyl ketone
[19] = system: Hansenula polymorpha ATCC 26012; assay: as above; format: cell-based; conditions: sec-alcohol to methyl ketone
[20] = system: Pichia sp. NRRL-Y-11328; assay: as above; format: cell-based; conditions: sec-alcohol to methyl ketone
[21] = system: Torulopsis sp. Strain A1 (NRRLY-11,419); assay: as above; format: cell-based; conditions: sec-alcohol to methyl ketone
[22] = system: Kloeckera sp. Strain A2 (NRRLY-11,420); assay: as above; format: cell-based; conditions: sec-alcohol to methyl ketone
[23] = system: cell extract of Candida utilis ATCC 26,387; assay: Oxidation of secondary alcohols to methylketone by cell extracts of yeasts; format: biochemical; conditions: methanol-grown; cell extract + NAD^+; sec. alcohol to methyl ketone; gas chromatography
[24] = system: cell extract of Hansenula polymorpha ATCC 26,012; assay: as above; format: biochemical; conditions: methanol-grown; cell extract + NAD^+; sec. alcohol to methyl ketone; gas chromatography
[25] = system: cell extract of Pichia sp. NRRL-Y-11,328; assay: as above; format: biochemical; conditions: methanol-grown; cell extract + NAD^+; sec. alcohol to methyl ketone; gas chromatography
[26] = system: cell extract of Torulopsis sp. strain A1 NRRL-Y-11,419; assay: as above; format: biochemical; conditions: methanol-grown; cell extract + NAD^+; sec. alcohol to methyl ketone; gas chromatography
[27] = system: cell extract of Kloeckera sp. strain A2 NRRL-Y-11,420; assay: as above; format: biochemical; conditions: methanol-grown; cell extract + NAD^+; sec. alcohol to methyl ketone; gas chromatography
[28] = system: purified secondary alcohol dehydrogenase from Pichia sp. NRRL Y-11,328; assay: Substrate specificity, electron acceptor and stoichiometry of purified yeast SADH; format: biochemical; conditions: examined spectrophotometrically

CC(C)O [Isopropanol]
Conversion Rate to Ketone, 2 hrs. [1]: 1 μmole/2 mg protein
Conversion Rate to Ketone, 20 hrs. [1]: 8 μmole/2 mg protein
Conversion Rate to Ketone, 2 hrs. [2]: 3 μmole/2 mg protein
Conversion Rate to Ketone, 2 hrs. [3]: 3 μmole/2 mg protein
Conversion Rate to Ketone, 20 hrs. [3]: 15 μmole/2 mg protein
Conversion Rate to Ketone, 2 hrs. [4]: 1 μmole/2 mg protein
Conversion Rate to Ketone, 2 hrs. [5]: 3 μmole/2 mg protein
Conversion Rate to Ketone, 2 hrs. [6]: 5 μmole/2 mg protein
Conversion Rates [7]: 0.40 μmoles/hr/mg protein
Conversion Rates [8]: 1.0 μmoles/hr/mg protein
Conversion Rates [9]: 2.0 μmoles/hr/mg protein
Conversion Rates [10]: 0.72 μmoles/hr/mg protein
Conversion Rates [11]: 0.62 μmoles/hr/mg protein
Conversion Rates [12]: 5.0 μmoles/hr/mg protein
Conversion Rates [13]: 0.25 μmoles/hr/mg protein
Conversion Rates [14]: 2.0 μmoles/hr/mg protein
Conversion Rates [15]: 0.67 μmoles/hr/mg protein
Conversion Rates [16]: 0.50 μmoles/hr/mg protein
relative percent rate of oxidation [17]: 85%
Conversion Rate ([18]; growth substrate Ethanol): 5.2 μmoles/hr/mg of protein
Conversion Rate ([18]; growth substrate Methanol): 6.2 μmoles/hr/mg of protein
Conversion Rate ([18]; growth substrate Methylamine): 5.0 μmoles/hr/mg of protein
Conversion Rate ([18]; growth substrate Methylformate): 5.6 μmoles/hr/mg of protein
Conversion Rate ([18]; growth substrate Propylamine): 4.2 μmoles/hr/mg of protein
Conversion Rate ([19]; growth substrate Ethanol): 5.0 μmoles/hr/mg of protein
Conversion Rate ([19]; growth substrate Methanol): 5.9 μmoles/hr/mg of protein
Conversion Rate ([19]; growth substrate Methylamine): 5.2 μmoles/hr/mg of protein
Conversion Rate ([19]; growth substrate Methylformate): 5.6 μmoles/hr/mg of protein
Conversion Rate ([19]; growth substrate Propylamine): 4.1 μmoles/hr/mg of protein
Conversion Rate ([20]; growth substrate Ethanol): 4.5 μmoles/hr/mg of protein
Conversion Rate ([20]; growth substrate Methanol): 5.2 μmoles/hr/mg of protein
Conversion Rate ([20]; growth substrate Methylamine): 4.2 μmoles/hr/mg of protein
Conversion Rate ([20]; growth substrate Methylformate): 4.9 μmoles/hr/mg of protein
Conversion Rate ([20]; growth substrate Propylamine): 3.2 μmoles/hr/mg of protein
Conversion Rate ([21]; growth substrate Ethanol): 4.2 μmoles/hr/mg of protein
Conversion Rate ([21]; growth substrate Methanol): 4.5 μmoles/hr/mg of protein
Conversion Rate ([21]; growth substrate Methylamine): 4.3 μmoles/hr/mg of protein
Conversion Rate ([21]; growth substrate Methylformate): 4.5 μmoles/hr/mg of protein
Conversion Rate ([21]; growth substrate Propylamine): 3.2 μmoles/hr/mg of protein
Conversion Rate ([22]; growth substrate Ethanol): 4.5 μmoles/hr/mg of protein
Conversion Rate ([22]; growth substrate Methanol): 4.8 μmoles/hr/mg of protein
Conversion Rate ([22]; growth substrate Methylamine): 4.0 μmoles/hr/mg of protein
Conversion Rate ([22]; growth substrate Methylformate): 4.9 μmoles/hr/mg of protein
Conversion Rate ([22]; growth substrate Propylamine): 4.0 μmoles/hr/mg of protein
Conversion Rate [23]: 4.5 μmoles/hr/mg Protein
Conversion Rate [24]: 4.8 μmoles/hr/mg Protein
Conversion Rate [25]: 5.5 μmoles/hr/mg Protein
Conversion Rate [26]: 4.5 μmoles/hr/mg Protein
Conversion Rate [27]: 4.8 μmoles/hr/mg Protein
oxidation by the purified enzyme [28]: catalyzed the oxidation
